Measured values from ChEMBL document CHEMBL1201862, “PubChem BioAssay data set” (2004).
The source made the active and inactive calls.

Legend:
[1] = target: T1, DNA dC->dU-editing enzyme APOBEC-3G (Homo sapiens, UniProt Q9HC16); experiment: APOBEC3G deaminase inhibitors, SAR follow-up, biochemical, fluorescence, single-stranded DNA substrate (AID 602136); format: functional; settings: read-out: IC50_Mean
[2] = target: T2, DNA dC->dU-editing enzyme APOBEC-3A (Homo sapiens, UniProt P31941); experiment: SAR analysis of small molecule inhibitors of APOBEC3A DNA Deaminase via a fluorescence-based single-stranded DNA deaminase assay - Set 2.; format: functional; settings: read-out: IC50_Mean
T2 sequence (P31941 whole entry): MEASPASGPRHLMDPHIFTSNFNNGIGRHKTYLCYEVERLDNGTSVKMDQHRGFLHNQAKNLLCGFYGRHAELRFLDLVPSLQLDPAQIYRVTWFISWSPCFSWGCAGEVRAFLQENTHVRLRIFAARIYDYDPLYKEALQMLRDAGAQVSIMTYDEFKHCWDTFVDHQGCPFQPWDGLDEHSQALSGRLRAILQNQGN

[3] = target: T1, DNA dC->dU-editing enzyme APOBEC-3G; experiment: SAR analysis of small molecule inhibitors of APOBEC3G DNA Deaminase via a fluorescence-based single-stranded DNA deaminase assay - Set 2.; format: functional; settings: read-out: IC50_Mean
[4] = target: T2, DNA dC->dU-editing enzyme APOBEC-3A; experiment: SAR analysis of small molecule inhibitors of APOBEC3A DNA Deaminase via a fluorescence-based single-stranded DNA deaminase assay.; format: functional; settings: read-out: IC50_Mean
Prothrombin = Prothrombin (Bos taurus, UniProt P00735); experiment: thrombin inhibition, dose response, biochemical, fluorescence polarization, uHTS hits (AID 602369); format: functional
[5] = microbe, parasite or virus in culture; format: functional; settings: Mycobacterium tuberculosis
[6] = target: 26S proteasome non-ATPase regulatory subunit 14 (Homo sapiens, UniProt O00487); experiment: inhibition of proteasome subunit RPN11 – biochemical, fluorescence polarization, uHTS hits, confirmation (AID 602368); format: functional
[7] = target: 72 kDa type IV collagenase (Homo sapiens, UniProt P08253); experiment: Dose Response validation of uHTS RPN11 inhibitor hits using a MMP-2 Fluorescence assay.; format: functional
Vero = experiment: cells; format: functional; settings: Chlorocebus sabaeus
[8] = target: Protein disulfide-isomerase (Homo sapiens, UniProt P07237); experiment: PDI inhibitors, insulin aggregation turbidity, dose response, biochemical, absorbance, cherry-picked samples (AID 602350); format: functional
HEK293 = experiment: inhibitors of LMP1-driven NF-kB reporter, dose response, cell-based, HEK293, luciferase, cherry-pick (AID 588343); format: functional; settings: Homo sapiens
[9] = target: T3, ATP-dependent translocase ABCB1 (Homo sapiens, UniProt P08183); experiment: ABCB1 efflux inhibitor potency, dose response, Jurkat-DNR cells, JC-1, flow cytometry, set 2 (AID 504569); format: functional; settings: read-out: EC50_MICROM_;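 also: potency of pump inhibitors that raise cellular JC-1 green fluorescence up to the nicardipine level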
T3 sequence (P08183 whole entry): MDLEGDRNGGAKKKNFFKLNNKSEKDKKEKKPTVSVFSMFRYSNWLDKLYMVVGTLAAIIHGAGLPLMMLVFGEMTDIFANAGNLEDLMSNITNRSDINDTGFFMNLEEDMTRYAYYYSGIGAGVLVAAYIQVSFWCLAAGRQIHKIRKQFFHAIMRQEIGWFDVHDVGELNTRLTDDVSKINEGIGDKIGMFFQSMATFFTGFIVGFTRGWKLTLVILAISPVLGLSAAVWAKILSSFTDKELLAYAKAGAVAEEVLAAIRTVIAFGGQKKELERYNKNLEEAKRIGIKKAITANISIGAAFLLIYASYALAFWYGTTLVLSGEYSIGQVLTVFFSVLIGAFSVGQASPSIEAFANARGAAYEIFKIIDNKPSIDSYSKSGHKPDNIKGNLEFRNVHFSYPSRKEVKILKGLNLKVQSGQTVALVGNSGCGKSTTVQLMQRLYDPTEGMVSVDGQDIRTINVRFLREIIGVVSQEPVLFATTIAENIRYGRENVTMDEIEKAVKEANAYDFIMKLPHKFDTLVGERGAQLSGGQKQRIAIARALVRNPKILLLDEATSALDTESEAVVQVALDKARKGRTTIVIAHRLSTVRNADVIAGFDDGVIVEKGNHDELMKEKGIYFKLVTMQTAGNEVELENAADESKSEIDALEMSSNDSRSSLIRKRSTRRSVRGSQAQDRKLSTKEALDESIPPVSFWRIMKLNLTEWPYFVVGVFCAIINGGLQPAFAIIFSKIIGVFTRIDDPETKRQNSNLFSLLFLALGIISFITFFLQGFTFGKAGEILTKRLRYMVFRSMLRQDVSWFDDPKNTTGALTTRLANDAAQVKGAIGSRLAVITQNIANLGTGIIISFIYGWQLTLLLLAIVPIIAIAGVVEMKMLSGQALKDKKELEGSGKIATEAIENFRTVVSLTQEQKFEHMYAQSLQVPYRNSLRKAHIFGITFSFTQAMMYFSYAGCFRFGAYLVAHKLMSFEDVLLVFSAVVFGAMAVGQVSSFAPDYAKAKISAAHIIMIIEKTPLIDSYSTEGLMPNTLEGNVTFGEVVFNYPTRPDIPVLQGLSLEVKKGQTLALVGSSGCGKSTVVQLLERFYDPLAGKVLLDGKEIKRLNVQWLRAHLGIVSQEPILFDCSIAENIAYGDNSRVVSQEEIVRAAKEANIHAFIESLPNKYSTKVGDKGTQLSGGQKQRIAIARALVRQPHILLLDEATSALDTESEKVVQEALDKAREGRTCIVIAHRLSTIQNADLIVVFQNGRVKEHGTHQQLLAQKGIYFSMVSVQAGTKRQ

H9c2 = experiment: cells; format: functional, cell-based; settings: Rattus norvegicus, H9c2, Myocardium;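 also: confirmatory concentration-response retest of ultra-high-throughput screening hits for modulation of myocardial damage; cell death induced by hydrogen peroxide oxidative stress; compound pretreatment for 60 min then peroxide exposure for 2 h; potency is for protecting the cells against peroxide damage rather than for killing them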
[10] = non-specific cell cytotoxicity, dose response, cytotoxicity control for PAX8 inhibitor project, plate reader, dry powder samples (AID 743021); format: functional, cell-based
Paired box protein Pax-8 = Paired box protein Pax-8 (Homo sapiens, UniProt Q06710); experiment: inhibitors of PAX8-driven TPO luciferase reporter, dose response, RMG-I cells, cherry-pick (AID 687027); format: functional, cell-based;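 also: luciferase reporter driven by Pax8 target thyroperoxidase promoter measured by SteadyGlo luminescence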
Sequence of Paired box protein Pax-8 (Q06710 whole entry): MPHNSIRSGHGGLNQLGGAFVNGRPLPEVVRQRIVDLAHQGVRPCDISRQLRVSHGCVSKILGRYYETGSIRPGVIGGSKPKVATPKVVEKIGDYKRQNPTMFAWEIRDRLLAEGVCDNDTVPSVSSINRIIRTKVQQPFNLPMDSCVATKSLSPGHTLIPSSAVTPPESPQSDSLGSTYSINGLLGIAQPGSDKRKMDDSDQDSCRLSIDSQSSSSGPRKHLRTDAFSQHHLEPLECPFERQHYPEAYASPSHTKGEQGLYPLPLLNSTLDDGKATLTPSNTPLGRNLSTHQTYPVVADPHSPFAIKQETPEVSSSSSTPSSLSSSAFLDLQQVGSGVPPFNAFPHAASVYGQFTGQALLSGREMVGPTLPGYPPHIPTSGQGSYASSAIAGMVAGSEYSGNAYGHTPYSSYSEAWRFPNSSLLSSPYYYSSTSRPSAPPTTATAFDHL

[11] = target: T3, ATP-dependent translocase ABCB1; experiment: ABCG2 efflux pump inhibitor potency, dose response, Ig-MXP3 cells, JC-1, flow cytometry, set 2 (AID 504566); format: functional; settings: read-out: EC50_MICROM_;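 also: flow cytometry median green fluorescence of retained JC-1 dye; potency of efflux pump inhibition measured as rising substrate retention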
Melanocortin receptor 4 = Melanocortin receptor 4 (Homo sapiens, UniProt P32245); experiment: MC4R antagonist potency on cAMP, dose response, cell-based, TR-FRET, biased antagonists (AID 602298); format: functional;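 also: antagonist potency against agonist-stimulated cAMP production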
[12] = nonselective inhibitors of cellular cAMP signaling, dose response, counter-screen for MC4R biased antagonist project, cell-based, TR-FRET cAMP detection (AID 602305); format: functional;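 also: U2OS cells stimulated with forskolin near its EC80 as the cAMP inducer; potency is for inhibition of forskolin-stimulated cAMP signaling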
[13] = Vero cell cytotoxicity, dose response, cytotoxicity control for M. tuberculosis growth inhibitor project, Vero cells, purified and synthesized compounds, set 4 (AID 504854); format: functional; settings: Mycobacterium tuberculosis
[14] = THP-1 cell cytotoxicity, cytotoxicity control, set 4 (AID 504911); format: functional; settings: Mycobacterium tuberculosis
[15] = target: Dual specificity protein kinase CLK4 (Homo sapiens, UniProt Q9HAZ1); format: functional
[16] = target: Dual specificity protein kinase CLK2 (Homo sapiens, UniProt P49760); format: functional
Sequence of Dual specificity protein kinase CLK2 (P49760 whole entry): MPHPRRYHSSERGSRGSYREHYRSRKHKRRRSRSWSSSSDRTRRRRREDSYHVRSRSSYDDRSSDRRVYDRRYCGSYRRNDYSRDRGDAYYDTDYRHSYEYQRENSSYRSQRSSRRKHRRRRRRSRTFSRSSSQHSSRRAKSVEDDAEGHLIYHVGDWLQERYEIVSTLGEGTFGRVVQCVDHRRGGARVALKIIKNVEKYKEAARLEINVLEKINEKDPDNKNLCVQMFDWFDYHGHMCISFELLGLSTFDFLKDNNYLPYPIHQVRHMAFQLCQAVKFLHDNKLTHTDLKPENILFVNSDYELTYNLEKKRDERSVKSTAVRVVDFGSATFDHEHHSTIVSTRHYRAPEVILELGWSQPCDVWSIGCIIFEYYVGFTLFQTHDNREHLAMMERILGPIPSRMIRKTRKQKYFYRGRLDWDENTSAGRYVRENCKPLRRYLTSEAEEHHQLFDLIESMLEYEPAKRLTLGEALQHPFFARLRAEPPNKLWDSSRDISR

[17] = target: Serine/threonine-protein kinase pim-1 (Homo sapiens, UniProt P11309); format: functional
[18] = target: T4, Melanin-concentrating hormone receptor 1 (Homo sapiens, UniProt Q99705); experiment: Late-stage fluorescence-based counterscreen for antagonists of the G-protein coupled receptor 7 (GPR7): cell-based dose response assay to identify antagonists of the melanin-concentrating hormone receptor 1 (MCHR1) Set 5.; format: functional
T4 sequence (Q99705 whole entry): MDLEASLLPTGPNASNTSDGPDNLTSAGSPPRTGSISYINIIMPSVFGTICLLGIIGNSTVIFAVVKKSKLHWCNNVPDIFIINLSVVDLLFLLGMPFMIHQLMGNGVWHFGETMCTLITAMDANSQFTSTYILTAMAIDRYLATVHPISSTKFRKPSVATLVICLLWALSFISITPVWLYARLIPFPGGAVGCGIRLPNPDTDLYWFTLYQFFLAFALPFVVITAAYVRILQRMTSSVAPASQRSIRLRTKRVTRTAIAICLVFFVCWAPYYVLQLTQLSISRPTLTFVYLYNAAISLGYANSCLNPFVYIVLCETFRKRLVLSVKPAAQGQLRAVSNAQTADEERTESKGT

[19] = target: T4, Melanin-concentrating hormone receptor 1; experiment: Late-stage fluorescence-based counterscreen for antagonists of the G-protein coupled receptor 7 (GPR7): cell-based dose response assay to identify antagonists of the melanin-concentrating hormone receptor 1 (MCHR1) Set 6.; format: functional
[20] = target: Neuropeptides B/W receptor type 1 (Homo sapiens, UniProt P48145); experiment: GPR7 antagonist potency, late-stage follow-up, cell-based, fluorescence, dose response, set 6 (AID 588583); format: functional
[21] = target: ALK tyrosine kinase receptor (Homo sapiens, UniProt Q9UM73); format: functional;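 also: ALK tested as one member of a kinase panel screen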
[22] = target: Cyclin-dependent kinase 19 (Homo sapiens, UniProt Q9BWU1); experiment: Navigating the Kinome. Panel member name: CDC2L6; format: functional
Activin receptor type-1 = Activin receptor type-1 (Homo sapiens, UniProt Q04771); experiment: Navigating the Kinome. Panel member name: ACVR1; format: functional
[23] = target: Receptor-type tyrosine-protein kinase FLT3 (Homo sapiens, UniProt P36888); format: functional;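 also: FLT3 was tested as one member of a kinome-wide kinase panel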
Sequence of Receptor-type tyrosine-protein kinase FLT3 (P36888 whole entry): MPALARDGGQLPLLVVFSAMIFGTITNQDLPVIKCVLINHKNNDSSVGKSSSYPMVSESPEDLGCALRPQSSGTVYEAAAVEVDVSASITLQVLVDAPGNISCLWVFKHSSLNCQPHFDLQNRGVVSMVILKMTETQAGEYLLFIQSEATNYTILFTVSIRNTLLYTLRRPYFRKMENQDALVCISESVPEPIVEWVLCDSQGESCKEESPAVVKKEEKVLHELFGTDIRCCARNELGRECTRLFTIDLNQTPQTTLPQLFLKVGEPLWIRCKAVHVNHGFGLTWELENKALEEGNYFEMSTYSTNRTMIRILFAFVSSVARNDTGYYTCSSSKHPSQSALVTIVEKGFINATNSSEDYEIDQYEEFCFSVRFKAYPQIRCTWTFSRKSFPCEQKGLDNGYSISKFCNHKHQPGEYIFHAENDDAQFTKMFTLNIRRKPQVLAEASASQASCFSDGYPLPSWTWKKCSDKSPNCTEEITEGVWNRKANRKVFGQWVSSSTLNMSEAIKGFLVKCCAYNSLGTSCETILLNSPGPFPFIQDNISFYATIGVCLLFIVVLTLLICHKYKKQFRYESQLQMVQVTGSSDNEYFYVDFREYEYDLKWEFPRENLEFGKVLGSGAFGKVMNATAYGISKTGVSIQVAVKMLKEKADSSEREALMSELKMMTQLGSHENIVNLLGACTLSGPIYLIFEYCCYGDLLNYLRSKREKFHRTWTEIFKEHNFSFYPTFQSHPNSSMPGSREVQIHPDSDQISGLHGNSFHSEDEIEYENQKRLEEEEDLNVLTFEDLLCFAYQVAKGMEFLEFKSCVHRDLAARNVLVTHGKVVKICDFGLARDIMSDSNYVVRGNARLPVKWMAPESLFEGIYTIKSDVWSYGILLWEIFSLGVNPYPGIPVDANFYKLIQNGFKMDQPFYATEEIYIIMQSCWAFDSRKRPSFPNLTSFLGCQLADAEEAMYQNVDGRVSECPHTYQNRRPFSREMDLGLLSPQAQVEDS

[24] = target: Glycogen synthase kinase-3 alpha (Homo sapiens, UniProt P49840); format: functional;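 also: GSK3A result taken from a broad kinome-wide kinase panel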
[25] = target: T5, Glycogen synthase kinase-3 beta (Homo sapiens, UniProt P49841); format: functional;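 also: value comes from a broad kinome profiling panel, with GSK3B as the panel member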
T5 sequence (P49841 whole entry): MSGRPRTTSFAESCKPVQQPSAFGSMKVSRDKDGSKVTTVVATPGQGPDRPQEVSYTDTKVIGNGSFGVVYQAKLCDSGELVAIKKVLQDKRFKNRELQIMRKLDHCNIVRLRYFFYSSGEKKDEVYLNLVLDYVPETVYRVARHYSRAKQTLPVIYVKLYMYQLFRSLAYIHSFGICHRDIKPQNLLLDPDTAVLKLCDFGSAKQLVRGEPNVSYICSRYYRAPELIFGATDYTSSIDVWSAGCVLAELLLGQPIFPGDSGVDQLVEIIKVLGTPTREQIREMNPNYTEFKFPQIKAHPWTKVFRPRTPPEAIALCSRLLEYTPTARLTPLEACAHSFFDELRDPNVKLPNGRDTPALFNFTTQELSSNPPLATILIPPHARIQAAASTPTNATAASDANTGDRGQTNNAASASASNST

[26] = target: Vascular endothelial growth factor receptor 2 (Homo sapiens, UniProt P35968); format: functional
Aurora kinase B = Aurora kinase B (Homo sapiens, UniProt Q96GD4); format: functional
Aurora kinase A = Aurora kinase A (Homo sapiens, UniProt O14965); format: functional;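 also: value from the Navigating the Kinome kinase panel profiling, panel entry STK6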
Sequence of Aurora kinase A (O14965 whole entry): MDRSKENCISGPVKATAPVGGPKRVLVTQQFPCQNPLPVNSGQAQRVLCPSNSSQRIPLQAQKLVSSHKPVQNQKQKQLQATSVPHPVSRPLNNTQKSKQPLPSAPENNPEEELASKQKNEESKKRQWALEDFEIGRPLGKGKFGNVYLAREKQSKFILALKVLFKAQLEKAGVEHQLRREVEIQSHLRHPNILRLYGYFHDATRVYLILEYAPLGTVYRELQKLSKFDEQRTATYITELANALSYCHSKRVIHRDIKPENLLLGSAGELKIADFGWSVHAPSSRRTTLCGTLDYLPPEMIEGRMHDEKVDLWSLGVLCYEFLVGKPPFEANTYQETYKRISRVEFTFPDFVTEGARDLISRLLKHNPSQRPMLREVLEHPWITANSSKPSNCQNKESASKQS

[27] = target: Cyclin-dependent kinase 5/CDK5 activator 1 (Homo sapiens, UniProt Q00535); experiment: CDK5-p25 kinase inhibition, dose response, selectivity assay for GSK3beta inhibitor project, biochemical, microfluidic mobility shift, dry powder, set 2 (AID 623979); format: functional
[28] = target: T5, Glycogen synthase kinase-3 beta; experiment: GSK3beta kinase inhibitors, dose response, biochemical, microfluidics, dry powder samples, set 2 (AID 623989); format: functional

T1 sequence (Q9HC16 whole entry): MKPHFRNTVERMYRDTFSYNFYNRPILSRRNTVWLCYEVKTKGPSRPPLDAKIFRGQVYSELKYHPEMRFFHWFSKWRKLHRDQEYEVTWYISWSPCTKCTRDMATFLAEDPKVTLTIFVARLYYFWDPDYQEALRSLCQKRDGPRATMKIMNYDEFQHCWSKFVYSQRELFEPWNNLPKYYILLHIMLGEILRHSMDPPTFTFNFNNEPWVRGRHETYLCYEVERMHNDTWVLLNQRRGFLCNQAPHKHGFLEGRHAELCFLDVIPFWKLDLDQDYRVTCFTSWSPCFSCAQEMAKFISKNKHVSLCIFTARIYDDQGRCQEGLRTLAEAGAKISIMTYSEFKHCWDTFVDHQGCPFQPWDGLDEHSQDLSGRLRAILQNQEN

**Q.** With O=C(NCc1ccc2c(c1)OCO2)c1nn2cccnc2c1Cl as the compound, how does the IC50 [1] read?
**A.** > 99 µM (inactive)

**Q.** What about the IC50 [2] of the same compound?
**A.** > 99 µM (inactive)

**Q.** And the IC50 [3]?
**A.** 49.9 µM (inactive)

**Q.** What about the IC50 [4] of the same compound?
**A.** > 99 µM (inactive)

**Q.** Which IC50 (Prothrombin) does the source give for COc1cc(/C=C/C(O)=C2\C(=O)NC(=O)N(CCc3ccccc3)C2=O)ccc1O here?
**A.** 40.6 µM (active)

**Q.** What about the CC50 [5] of the same compound?
**A.** 15.9 µM (active)

**Q.** What about the IC50 [6] of the same compound?
**A.** 29.2 µM (active)

**Q.** And the IC50 [7]?
**A.** > 100 µM (inactive)

**Q.** What about the CC50 (Vero) of the same compound?
**A.** 17.7 µM (active)

**Q.** Which AC50 [8] does the source give for CC[C@]12c3[nH]c4cc(-c5ccco5)ccc4c3CCN1C(=O)[C@@H](CC(=O)NCc1ccc(OC)c(OC)c1)C[C@@H]2C(=O)N1CCN(C(=O)c2ccco2)CC1 here?
**A.** 4.25 µM (active)

**Q.** With C#Cc1cc(N2CCN(C(=O)c3ccoc3)CC2)n2nc(-c3cccc(Cl)c3)cc2n1 as the compound, how does the AC50 (HEK293) read?
**A.** 13.4 µM (active)

**Q.** And the EC50 [9]?
**A.** 7.34 µM (active)

**Q.** And the IC50 (H9c2)?
**A.** > 79 µM (inactive)

**Q.** What about the AC50 [10] of the same compound?
**A.** 4.43 µM (active)

**Q.** What about the AC50 (Paired box protein Pax-8) of the same compound?
**A.** 3.79 µM (active)

**Q.** And the EC50 [11]?
**A.** 1.98 µM (active)

**Q.** What about the IC50 (Melanocortin receptor 4) of the same compound?
**A.** > 64.6 µM (inactive)

**Q.** And the IC50 [12]?
**A.** > 64.6 µM (inactive)

**Q.** Which results are given for CC(C)NC(=O)CSc1nc2ccccc2c(=O)[nH]1?
**A.** CC50 [13]: > 100 µM (active); CC50 [14]: > 100 µM (active)

**Q.** With COCCn1c(C)c(C)sc1=NC(=O)c1cc(SC)ccc1Cl as the compound, how does the Ki [15] read?
**A.** 5.01 µM (active)

**Q.** And the Ki [16]?
**A.** 6.31 µM (active)

**Q.** And the Ki [17]?
**A.** 6.31 µM (active)

**Q.** For COc1ccc(Oc2c(Cl)cnn(C3=Nc4cc(Cl)ccc4Oc4ncccc43)c2=O)cc1, which IC50 [18] is on record?
**A.** 8.51 µM (active)

**Q.** Which IC50 [19] does the source give for N#CC(c1ccccc1F)c1c(Cl)cnn(Cc2cccc3ccccc23)c1=O (configuration not stated) here?
**A.** 0.937 µM (active)

**Q.** What about the IC50 [20] of the same compound?
**A.** 0.937 µM (active)

**Q.** Which results are given for Cn1cc(Nc2ncc(Br)c(Nc3cccc(C(N)=O)c3)n2)cn1?
**A.** Ki [21]: 3.16 µM (active); Ki [22]: 6.31 µM (active)

**Q.** What does the source list for CCc1cnn2c(NCc3ccc[n+]([O-])c3)cc(N3CCCCC3CCO)nc12 (configuration not stated)?
**A.** Ki (Activin receptor type-1): > 3.98 µM (inactive); Ki [23]: > 3.16 µM (inactive); Ki [24]: 1.58 µM (active); Ki [25]: 1.26 µM (active)

**Q.** Which Ki [26] does the source give for O=C1NC(=S)NC(=O)C1=Cc1ccc(-c2ccc(C(=O)O)c(O)c2)o1 here?
**A.** > 5.01 µM (inactive)

**Q.** And the Ki (Aurora kinase B)?
**A.** 0.0398 µM (active)

**Q.** And the Ki (Aurora kinase A)?
**A.** 0.126 µM (active)

**Q.** What does the source list for O=C(Cc1cccc2ccccc12)Nc1cn(C2CCC2)cn1?
**A.** AC50 [27]: 0.137 µM (active); AC50 [28]: 8.41 µM (active)
